Legend:
[1] = xn = mol fraction of the nth substance listed; details: 101 kPa, Liquid; for viscosity: Capillary tube (Ostwald / Ubbelohde) method; for mass density: Pycnometric method
[2] = 101 kPa, Liquid; for viscosity: Capillary tube (Ostwald / Ubbelohde) method; for mass density: Pycnometric method

CCCCCCO [hexan-1-ol] + Cc1cccc(C)c1
[1], x1 = 1
Details | mass density [kg/m3] | viscosity [mPa·s]
308.15 K | 808.5 | 3.318
318.15 K | 801.2 | 2.518

CCCCCCO [hexan-1-ol]
[2]
Details | mass density [kg/m3] | viscosity [mPa·s]
308.15 K | 808.5 | 3.318
318.15 K | 801.2 | 2.518

Cc1cccc(C)c1 [1,3-dimethylbenzene]
[2]
Details | mass density [kg/m3] | viscosity [mPa·s]
308.15 K | 851.3 | 0.521
318.15 K | 842.7 | 0.47

Cc1cccc(C)c1 [1,3-dimethylbenzene] + CCCCCCO
[1]
Details | mass density, 308.15 K [kg/m3] | mass density, 318.15 K [kg/m3] | viscosity, 308.15 K [mPa·s] | viscosity, 318.15 K [mPa·s]
x2 = 0 | 851.3 | 842.7 | 0.521 | 0.47
x2 = 0.1002 | 846.4 | 837.6 | 0.562 | 0.502
x2 = 0.2002 | 841.7 | 833 | 0.638 | 0.561
x2 = 0.3007 | 837.2 | 828.7 | 0.742 | 0.643
x2 = 0.4001 | 833 | 824.6 | 0.875 | 0.747
x2 = 0.5 | 828.8 | 820.6 | 1.057 | 0.885
x2 = 0.5999 | 824.7 | 816.6 | 1.298 | 1.066
x2 = 0.6999 | 820.6 | 812.7 | 1.629 | 1.306
x2 = 0.7999 | 816.6 | 808.8 | 2.072 | 1.623
x2 = 0.8999 | 812.6 | 805 | 2.643 | 2.031

CCCCCCO [hexan-1-ol] + Cc1ccc(C)cc1
[1]
Details | mass density, 308.15 K [kg/m3] | mass density, 318.15 K [kg/m3] | viscosity, 308.15 K [mPa·s] | viscosity, 318.15 K [mPa·s]
x1 = 0.1001 | 843.6 | 834.9 | 0.578 | 0.513
x1 = 0.2001 | 839.4 | 830.8 | 0.647 | 0.567
x1 = 0.2999 | 835.4 | 826.9 | 0.742 | 0.643
x1 = 0.4001 | 831.4 | 823.1 | 0.87 | 0.743
x1 = 0.5009 | 827.5 | 819.3 | 1.046 | 0.877
x1 = 0.5999 | 823.7 | 815.6 | 1.279 | 1.051
x1 = 0.6999 | 819.9 | 811.9 | 1.602 | 1.287
x1 = 0.8 | 816.1 | 808.3 | 2.042 | 1.604
x1 = 0.9 | 812.3 | 804.7 | 2.618 | 2.017
x1 = 1 | 808.5 | 801.2 | 3.318 | 2.518

Cc1ccccc1C [1,2-dimethylbenzene]
[2]
Details | mass density [kg/m3] | viscosity [mPa·s]
308.15 K | 866.7 | 0.666
318.15 K | 858.4 | 0.591

CCCCCCO [hexan-1-ol] + Cc1ccccc1C
[1], x1 = 1
Details | mass density [kg/m3] | viscosity [mPa·s]
308.15 K | 808.5 | 3.318
318.15 K | 801.2 | 2.518

Cc1ccc(C)cc1 [1,4-dimethylbenzene] + CCCCCCO
[1], x2 = 0
Details | mass density [kg/m3] | viscosity [mPa·s]
308.15 K | 848.2 | 0.541
318.15 K | 839.5 | 0.486

Cc1ccccc1C [1,2-dimethylbenzene] + CCCCCCO
[1]
Details | mass density, 308.15 K [kg/m3] | mass density, 318.15 K [kg/m3] | viscosity, 308.15 K [mPa·s] | viscosity, 318.15 K [mPa·s]
x2 = 0 | 866.7 | 858.4 | 0.666 | 0.591
x2 = 0.0999 | 860.1 | 851.7 | 0.709 | 0.621
x2 = 0.1999 | 853.9 | 845.6 | 0.789 | 0.683
x2 = 0.2999 | 847.9 | 839.7 | 0.899 | 0.768
x2 = 0.4001 | 842.1 | 833.9 | 1.043 | 0.879
x2 = 0.4997 | 836.4 | 828.3 | 1.23 | 1.02
x2 = 0.6 | 830.7 | 822.7 | 1.475 | 1.199
x2 = 0.7 | 825.1 | 817.2 | 1.799 | 1.431
x2 = 0.8 | 819.5 | 811.8 | 2.217 | 1.73
x2 = 0.8999 | 814 | 806.4 | 2.738 | 2.104

Cc1ccc(C)cc1 [1,4-dimethylbenzene]
[2]
Details | mass density [kg/m3] | viscosity [mPa·s]
308.15 K | 848.2 | 0.541
318.15 K | 839.5 | 0.486

— the NIST ThermoML archive (doi:10.1021/je100823t)
